The subject of this assay is senescence-associated acidic β-galactosidase (SA-β-gal) inducing TIG3 cells. The assay is described as follows: FACS analysis of SA-β-gal in doxorubicin senescence-induced TIG3 cells (anti-aging action). The class given is cell-based, human. The note with it: 50 μM added after doxorubicin (150 nM), 48 hours. The protocol:
In Example 5, an anti-aging action in a senescence-associated acidic β-galactosidase (SA-β-gal) inducing TIG3 cells (human embryonic fibroblast) in which TIBC-CANDDY_MLN had been added was evaluated by FACS analysis.
TIG3 cells as normal cells were seeded in a 24-well plate at a cell density of 8×10^4 cells/well, and then cultured under conditions of 37° C. and 5 vol % CO2 for 16 hours.
After 16 hours from cell seeding, doxorubicin was added to each well at 150 nM/well to induce cellular senescence. As a medium, a serum-free medium (37° C.) in which 1 mass % L-glutamine solution (Sigma-Aldrich) was added to D-MEM (high D-glucose, phenol red, sodium pyruvate (Wako Pure Chemical Industries, Ltd.)) was used. It is noted that the L-glutamine solution was added immediately before use. After the addition of doxorubicin, culture was performed under conditions of 37° C. and 5 vol % CO2 for 24 hours.
After 24 hours from induction of senescence, TIBC-CANDDY_MLN was added to TIG3 cells as follows. As a medium, a serum-free medium (37° C.) in which 1 mass % L-glutamine solution (Sigma-Aldrich) was added to D-MEM (high D-glucose, phenol red, sodium pyruvate (Wako Pure Chemical Industries, Ltd.)) was used. It is noted that the L-glutamine solution was added immediately before use. A DMSO solution containing TIBC-CANDDY_MLN was mixed with the medium so that the concentration of DMSO was 1 vol %, and added to each well at 500 μL/well, and cultured under conditions of 37° C. and 5 vol % CO2 for 48 hours. As a control, DMSO was used.
For quantification of SA-β-gal as a senescence marker, a commercially available kit (Cellular Senescence Detection Kit-SPiDER-βGal (DOJINDO LABORATORIES)) was used. […]
A BD FACSCanto™ II (BD Biosciences) was used for flow cytometry to detect SA-β-gal labeled with FITC. […] A histogram of the FITC strength was created by an analysis software FlowJo™ (TOMY Digital Biology Co., Ltd.), and the senescence suppressing action by TIBC-CANDDY_MLN was evaluated from a shift in the histogram.
Background: A flow cytometer gives signals particle by particle.

Consider `CC(C)C[C@H](NC(=O)CNC(=O)c1cc(Cl)ccc1Cl)C(=O)NCCCCCCC(=O)Nc1ccc(C(=O)/C=C/c2ccc(I)cc2)cc1` [TIBC-CANDDY_MLN], for which the “cellular senescence suppressing action” value is “about 80%” and the “shift to SA-β-gal (senescence marker) positive (FACS histogram)” value is given as “hardly observed”.

Values taken from patent US11007269B2, “P53 degradation inducing molecule and pharmaceutical composition” (Tokyo University of Science Foundation, priority 2016, dated 2021).
